Test results as given in US9434724B2, “Quinuclidines for modulating alpha 7 activity” (priority 2014, dated 2016).
Counter-ions that a name gives are not always drawn. Like-named read-outs stand apart in the source and are kept apart here.

Columns and labels:
[1] = Metabolic stability assay in human liver microsomes (HLM); assay type: in vitro ADME; conditions: 1 μM
Experimental: (§1) Protocol 1: Studies were carried out in human and rat liver microsomes (“HLM” and “RLM,” respectively). Human and rat liver microsomes were purchased from BD Gentest. DMSO stocks were prepared for the test compounds. Aliquots of the DMSO solutions were diluted to 0.5 mM by acetonitrile, then further diluted by liver microsomes/buffer to 1.5 μM. 30 μL of 1.5 μM solutions were mixed with 15 μL of 6 mM NADPH, which had been pre-warmed to 37° C., at a final test compound concentration of 1 μM. The plates were kept in a 37° C. water bath for the duration of the experiment. At each time point (0, 5, 15, 30, 45 minutes), 135 μL of acetonitrile was added into corresponding wells. After the final time point was sampled, the plates were shaken at a vibrator (IKA, MTS 2/4) for 10 min (600 rpm/min) and then centrifuged at 5594 g for 15 min (Thermo Multifuge×3R). Aliquots of the supernatant were removed, diluted 1:1 into distilled water, and analyzed by LC-MS/MS. The peak area response ratio to internal standard (PARR) of the compounds at 5, 15, 30, 45 minutes was compared to the PARR at time 0 to determine the percent of test compound remaining at each time point. Half-lives were calculated using Excel software, fitting to a single-phase exponential decay equation.
(§2) Protocol 2: Studies were carried out in human and rat liver microsomes. Buffer solutions were prepared as follows: Buffer A: 1.0 L of 0.1 M monobasic Potassium Phosphate buffer containing 1.0 mM EDTA; Buffer B: 1.0 L of 0.1 M Dibasic Potassium Phosphate buffer containing 1.0 mM EDTA; Buffer C: 0.1 M Potassium Phosphate buffer, 1.0 mM EDTA, pH 7.4 by titrating 700 mL of buffer B with buffer A while monitoring with a pH meter.
(§3) Reference compound (Ketanserin) and test compound spiking solutions were prepared as follows: 500 μM spiking solution: add 10 μL of 10 mM DMSO stock solution into 190 μL ACN; 1.5 μM spiking solution in microsomes (0.75 mg/mL): add 1.5 μL of 500 μM spiking solution and 18.75 μL of 20 mg/mL liver microsomes into 479.75 μL of Buffer C.
(§4) NADPH stock solution (6 mM) was prepared by dissolving NADPH into buffer C.
(§5) Assay procedure: 30 μL of 1.5 μM spiking solution containing 0.75 mg/mL microsomes solution was dispensed to the wells designated for […]. The plate was pre-incubated at 37° C. for 10 minutes. 15 μL of NADPH stock solution (6 mM) was added to the wells designated as Time 45, and the timer was started. At 30 mM, 15 mM, and 5 mM, 15 μL NADPH stock solution (6 mM) was added to the wells, respectively. At the end of incubation (0 mM), 135 μL of ACN containing IS was added to all the wells. Then 15 μL of NADPH stock solution (6 mM) was added to the wells designated as Time 0. After quenching, the reaction mixtures were centrifuged at 3220 g for […]. Following centrifugation, 50 μL of the supernatant was transferred from each well into a 96-well sample plate containing 50 μL of ultra-pure water (Millipore) for LC/MS analysis. The peak area response (PARR) ratio to internal standard of the compounds at 5, 15, 30, and 45 minutes was compared to the PARR at time 0 to determine the percent of test compound remaining at each time point. Half-lives were calculated using Excel software, fitting to a single-phase exponential decay equation.

[2] = biological target: T1, rat brain nicotinic receptor (α7 NAChR) (Rattus norvegicus (Rat), UniProt Q05941); assay type: binding
CYP2C19 [3] = biological target: T2, CYP2C19 (Homo sapiens (Human), UniProt P33261); conditions: microsomes
[4] = Metabolic stability assay in rat liver microsomes (RLM); assay type: in vitro ADME; conditions: 1 μM
Experimental: as §1, §2, §3, §4, §5

CYP1A2 = CYP1A2 (Homo sapiens (Human), UniProt P05177); assay: Cytochrome P450 inhibition in human liver microsomes, CYP1A2
[5] = biological target: T1, rat brain nicotinic receptor (α7 NAChR); assay type: binding; conditions: Protocol No. 2; [3H] α-Bungarotoxin 0.4 nM, rat brain P2 membrane
Human plasma stability = assay type: in vitro ADME; conditions: plasma; for % Remaining @ 2 h: 5 μM
Experimental: Protocol 1: Studies were carried out in human plasma. All plasma was obtained from Bioreclamation and collected on sodium heparin. Plasma was adjusted to pH 7.4. A DMSO stock was first prepared for the test compound. An aliquot of the DMSO solution was dosed into 1 mL of plasma, which had been pre-warmed to 37° C., at a final test compound concentration of 1 μM. The vials were kept in a benchtop Thermomixer® for the duration of the experiment. Aliquots (100 μL) were taken at each time point (0, 15, 30, 60, and 120 minutes) and added to 96-well plates which had been pre-filled with 300 μL of acetonitrile. Samples were stored at 4° C. until the end of the experiment. After the final time point was sampled, the plate was mixed and then centrifuged at 3,000 rpm for 10 minutes. Aliquots of the supernatant were removed, diluted 1:1 into distilled water, and analyzed by LC-MS/MS. The peak area response ratio to internal standard (PARR) of the compound at 15, 30, 60 and 120 minutes was compared to the PARR at time 0 to determine the percent of test compound remaining at each time point. Half-lives were calculated using GraphPad software, fitting to a single-phase exponential decay equation.
Protocol 2: Studies were carried out in plasma. Plasma was prepared under approval of IRB and IACUC on sodium heparin. The pH of plasma was monitored and used within the range of pH 7.4 to pH 8.0. DMSO stocks were prepared for the test compounds. Aliquots of the DMSO solutions were diluted to 0.05 mM by 0.05 mM Sodium phosphate buffer with 0.5% BSA. Then 10 μL of 0.05 mM solutions were dosed into 90 μL of plasma in duplicates (n=2), which had been pre-warmed to 37° C., at a final test compound concentration of 5 μM. The plates were kept in a 37° C. water bath for the duration of the experiment. At each time point (0, 5, 15, 30, 45, 60, and 120 minutes), 400 μL of acetonitrile was added into corresponding wells. After the final time point was sampled, the plates were shaken at the vibrator (IKA, MTS 2/4) for 10 min (600 rpm/min) and then centrifuged at 5594 g for 15 min (Thermo Multifuge×3R). Aliquots of the supernatant were removed, diluted 1:1 into distilled water, and analyzed by LC-MS/MS. The peak area response ratio to internal standard (PARR) of the compounds at 5, 15, 30, 45, 60, and 120 minutes was compared to the PARR at time 0 to determine the percent of test compound remaining at each time point. Half-lives were calculated using Excel software, fitting to a single-phase exponential decay equation.

CYP2C19 [6] = biological target: T2, CYP2C19; assay: Cytochrome P450 inhibition in human liver microsomes, CYP2C19; conditions: read-out: 2C19 IC50, Protocol 1
CYP2C9 = CYP2C9 (Homo sapiens (Human), UniProt P11712); assay: Cytochrome P450 inhibition in human liver microsomes, CYP2C9; conditions: read-out: 2C9 IC50, Protocol 1
CYP3A4 = CYP3A4 (Homo sapiens (Human), UniProt P08684); assay: Cytochrome P450 inhibition in human liver microsomes, CYP3A4
[7] = Protocol No. 1, human liver microsomes
[8] = Protocol No. 1, rat liver microsomes
[9] = read-out: 3A4 IC50 (Midazolam), substrate midazolam, Protocol 1
[10] = read-out: 3A4 IC50 (Testosterone), substrate testosterone, Protocol 1

Chain of CYP3A4 (P08684 whole entry): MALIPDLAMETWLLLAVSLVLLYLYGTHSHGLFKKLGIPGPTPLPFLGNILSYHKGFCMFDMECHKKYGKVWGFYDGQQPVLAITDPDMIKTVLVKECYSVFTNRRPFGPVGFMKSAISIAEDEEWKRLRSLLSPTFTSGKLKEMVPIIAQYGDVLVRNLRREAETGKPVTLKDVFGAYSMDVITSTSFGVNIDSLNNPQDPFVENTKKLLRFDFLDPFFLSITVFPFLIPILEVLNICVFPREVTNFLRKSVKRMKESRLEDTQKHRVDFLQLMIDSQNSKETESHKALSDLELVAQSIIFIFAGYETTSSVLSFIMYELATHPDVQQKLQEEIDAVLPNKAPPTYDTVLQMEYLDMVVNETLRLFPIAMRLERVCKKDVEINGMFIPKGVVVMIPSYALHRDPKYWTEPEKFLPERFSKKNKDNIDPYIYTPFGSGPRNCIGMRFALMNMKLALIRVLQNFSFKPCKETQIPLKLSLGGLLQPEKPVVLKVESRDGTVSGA
Chain of CYP1A2 (P05177 whole entry): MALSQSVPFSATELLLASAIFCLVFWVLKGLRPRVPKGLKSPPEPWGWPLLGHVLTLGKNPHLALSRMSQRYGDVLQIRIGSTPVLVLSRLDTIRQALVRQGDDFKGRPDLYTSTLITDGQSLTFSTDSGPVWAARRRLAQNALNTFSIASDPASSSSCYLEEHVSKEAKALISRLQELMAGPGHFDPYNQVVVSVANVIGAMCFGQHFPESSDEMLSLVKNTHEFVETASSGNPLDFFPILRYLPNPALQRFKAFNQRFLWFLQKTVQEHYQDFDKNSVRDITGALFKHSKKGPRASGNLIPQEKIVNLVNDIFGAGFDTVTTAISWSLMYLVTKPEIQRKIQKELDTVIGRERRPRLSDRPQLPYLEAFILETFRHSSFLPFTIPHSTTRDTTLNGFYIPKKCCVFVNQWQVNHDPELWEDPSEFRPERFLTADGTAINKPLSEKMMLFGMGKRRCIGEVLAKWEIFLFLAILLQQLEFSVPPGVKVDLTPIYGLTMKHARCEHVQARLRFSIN
T1 sequence (Q05941 23-502 limits assumed): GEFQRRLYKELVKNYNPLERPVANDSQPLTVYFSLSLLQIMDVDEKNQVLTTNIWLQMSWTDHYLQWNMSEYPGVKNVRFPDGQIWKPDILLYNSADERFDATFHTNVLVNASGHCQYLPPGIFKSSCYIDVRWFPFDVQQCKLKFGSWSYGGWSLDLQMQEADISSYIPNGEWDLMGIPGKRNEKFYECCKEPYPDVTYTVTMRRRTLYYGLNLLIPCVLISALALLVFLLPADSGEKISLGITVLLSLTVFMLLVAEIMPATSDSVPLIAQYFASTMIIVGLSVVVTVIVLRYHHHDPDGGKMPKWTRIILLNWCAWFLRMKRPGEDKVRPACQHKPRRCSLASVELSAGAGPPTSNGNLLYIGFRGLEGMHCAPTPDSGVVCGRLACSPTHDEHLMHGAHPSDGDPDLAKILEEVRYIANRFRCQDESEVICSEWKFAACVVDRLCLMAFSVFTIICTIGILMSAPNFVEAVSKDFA
T2 sequence (P33261 whole entry): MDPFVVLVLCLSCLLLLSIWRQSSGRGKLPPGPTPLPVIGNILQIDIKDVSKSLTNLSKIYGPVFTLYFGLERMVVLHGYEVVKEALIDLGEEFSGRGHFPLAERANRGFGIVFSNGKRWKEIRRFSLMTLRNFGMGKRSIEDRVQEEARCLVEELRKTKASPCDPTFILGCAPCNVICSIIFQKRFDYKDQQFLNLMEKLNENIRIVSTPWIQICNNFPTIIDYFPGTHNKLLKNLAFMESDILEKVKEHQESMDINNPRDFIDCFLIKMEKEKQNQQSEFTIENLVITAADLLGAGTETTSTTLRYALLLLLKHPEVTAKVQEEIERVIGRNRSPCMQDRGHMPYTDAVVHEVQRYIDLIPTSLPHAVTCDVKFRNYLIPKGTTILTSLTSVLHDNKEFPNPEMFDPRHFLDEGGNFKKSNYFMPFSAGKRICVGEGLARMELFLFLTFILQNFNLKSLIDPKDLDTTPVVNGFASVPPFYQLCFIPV
Chain of CYP2C9 (P11712 whole entry): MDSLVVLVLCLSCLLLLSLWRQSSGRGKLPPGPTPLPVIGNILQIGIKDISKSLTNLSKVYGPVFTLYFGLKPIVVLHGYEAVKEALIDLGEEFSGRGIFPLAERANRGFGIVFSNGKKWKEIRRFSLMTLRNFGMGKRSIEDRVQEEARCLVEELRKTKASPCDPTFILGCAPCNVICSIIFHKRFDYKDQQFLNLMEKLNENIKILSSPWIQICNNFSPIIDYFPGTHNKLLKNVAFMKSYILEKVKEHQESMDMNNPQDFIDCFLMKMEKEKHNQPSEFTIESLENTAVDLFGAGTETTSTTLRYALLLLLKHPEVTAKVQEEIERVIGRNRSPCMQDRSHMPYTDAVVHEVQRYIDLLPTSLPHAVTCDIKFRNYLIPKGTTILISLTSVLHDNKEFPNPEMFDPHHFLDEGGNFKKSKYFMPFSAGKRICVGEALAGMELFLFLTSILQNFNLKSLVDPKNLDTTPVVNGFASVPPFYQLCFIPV

Structure (SMILES) | IC50 [2] | Ki [2] | IC50 [5] | Ki [5] | HLM ([1]; human, microsomes) | RLM ([4]; rat, microsomes) | % Remaining @ 2 h (Human plasma stability; human, 2 h) | further results
O=C(OCC12CCN(CC1)CC2)c1c[nH]c2ccc(Cl)cc12 [Compound 2, quinuclidin-4-ylmethyl 5-chloro-1H-indole-3-carboxylate] | 328 nM | 287 nM | – | – | – | – | – | HLM ([1]; human, microsomes, pH 7.4): <13.608 mL/min/kg; IC50 (CYP2C19 [3]): > 10000 nM; RLM ([4]; rat, microsomes, pH 7.4): 127.44 mL/min/kg; IC50 (CYP1A2; read-out: 1A2 IC50, Protocol 2): > 10000 nM
O=C(OCC12CCN(CC1)CC2)c1c[nH]c2c(Cl)cccc12 [Compound 25, quinuclidin-4-ylmethyl 7-chloro-1H-indole-3-carboxylate] | 1650 nM | 1450 nM | – | – | – | – | – | HLM ([1]; human, microsomes, pH 7.4): <13.608 mL/min/kg; IC50 (CYP2C19 [3]): > 10000 nM; RLM ([4]; rat, microsomes, pH 7.4): 219.053 mL/min/kg; IC50 (CYP1A2; read-out: 1A2 IC50, Protocol 2): > 10000 nM
Cl.O=C(OCC12CCN(CC1)CC2)c1c[nH]c2cc(C(F)(F)F)ccc12 [Compound 90, quinuclidin-4-ylmethyl 6-(trifluoromethyl)-1H-indole-3-carboxylate] | – | – | > 3000 nM | > 3000 nM | – | – | – | HLM [1, 7]: 5.21 mL/min/kg; RLM [4, 8]: 72.22 mL/min/kg; % Remaining @ 2 h (Human plasma stability; Protocol No. 2, 37° C.): 63.18%
Cc1cc(OC(=O)C(C)(C)C)cc2[nH]cc(C(=O)OCC34CCN(CC3)CC4)c12 [Compound 89, quinuclidin-4-ylmethyl 4-methyl-6-(pivaloyloxy)-1H-indole-3-carboxylate] | – | – | 1070 nM | 2130 nM | 347.66 mL/min/kg | 1154.15 mL/min/kg | 77.23% | –
CC(=O)Nc1cc(C)c2c(C(=O)OCC34CCN(CC3)CC4)c[nH]c2c1 [Compound 93, quinuclidin-4-ylmethyl 6-acetamido-4-methyl-1H-indole-3-carboxylate] | – | – | 1310 nM | 2870 nM | 12.96 mL/min/kg | 12.66 mL/min/kg | 81.38% | –
Cc1cc2c(C(=O)OCC34CCN(CC3)CC4)c[nH]c2cc1C#N [Compound 84, quinuclidin-4-ylmethyl 6-cyano-5-methyl-1H-indole-3-carboxylate] | – | – | 3340 nM | 7180 nM | – | – | – | HLM [1, 7]: 10.24 mL/min/kg; RLM [4, 8]: 116.21 mL/min/kg; % Remaining @ 2 h (Human plasma stability; Protocol No. 2, 37° C.): 59.79%
Cc1c(OCCO)ccc2[nH]cc(C(=O)OCC34CCN(CC3)CC4)c12 [Compound 95, quinuclidin-4-ylmethyl 5-(2-hydroxyethoxy)-4-methyl-1H-indole-3-carboxylate, 2,2,2-trifluoroacetate salt] | – | – | 213 nM | 414 nM | 2.86 mL/min/kg | 17.75 mL/min/kg | 73.17% | –
Cc1cc(F)cc2[nH]cc(C(=O)OCC34CCN(CC3)CC4)c12 [Compound 44, quinuclidin-4-ylmethyl 6-fluoro-4-methyl-1H-indole-3-carboxylate] | 480 nM | 412 nM | – | – | 3.5 mL/min/kg | 531.35 mL/min/kg | 95.72% | IC50 (CYP2C19 [6]): > 10000 nM; IC50 (CYP2C9): > 10000 nM; T1/2 (Human plasma stability; human): ∞; IC50 (CYP1A2; read-out: 1A2 IC50, Protocol 1): > 10000 nM; IC50 (CYP3A4; [9]): > 10000 nM; IC50 (CYP3A4; [10]): > 10000 nM
COc1cc2[nH]cc(C(=O)OCC34CCN(CC3)CC4)c2cc1OC [Compound 87, quinuclidin-4-ylmethyl 5,6-dimethoxy-1H-indole-3-carboxylate] | – | – | 1560 nM | 2710 nM | – | – | – | HLM [1, 7]: 0.5 mL/min/kg; RLM [4, 8]: 257.71 mL/min/kg; % Remaining @ 2 h (Human plasma stability; Protocol No. 2, 37° C.): 55.42%
Cc1c(F)ccc2[nH]cc(C(=O)OCC34CCN(CC3)CC4)c12 [Compound 43, quinuclidin-4-ylmethyl 5-fluoro-4-methyl-1H-indole-3-carboxylate] | 207 nM | 177 nM | – | – | 5.57 mL/min/kg | 469.04 mL/min/kg | 112.99% | IC50 (CYP2C19 [6]): > 10000 nM; IC50 (CYP2C9): > 10000 nM; T1/2 (Human plasma stability; human): ∞; IC50 (CYP1A2; read-out: 1A2 IC50, Protocol 1): > 10000 nM; IC50 (CYP3A4; [9]): > 10000 nM; IC50 (CYP3A4; [10]): > 10000 nM
COc1cc(C)cc2[nH]cc(C(=O)OCC34CCN(CC3)CC4)c12 [Compound 85, quinuclidin-4-ylmethyl 4-methoxy-6-methyl-1H-indole-3-carboxylate] | – | – | 180 nM | 357 nM | 8.18 mL/min/kg | 59.67 mL/min/kg | 27.28% | –
Cc1c(OCC(F)(F)F)ccc2[nH]cc(C(=O)OCC34CCN(CC3)CC4)c12 [Compound 94, quinuclidin-4-ylmethyl 4-methyl-5-(2,2,2-trifluoroethoxy)-1H-indole-3-carboxylate] | – | – | 162 nM | 230 nM | 2.62 mL/min/kg | 26.52 mL/min/kg | 76.38% | –
